ChEMBL document CHEMBL1671726 (Antimicrob Agents Chemother, 2010)

Key:
Assay in all cases: microbe, parasite or virus in culture
[1] = tested on: Plasmodium falciparum; settings: F09N58, 72 h
[2] = tested on: Plasmodium falciparum; settings: F09A54, 72 h
[3] = tested on: Plasmodium falciparum; settings: F09A41, 72 h
[4] = tested on: Plasmodium falciparum; settings: F09A55, 72 h
[5] = tested on: Plasmodium falciparum; settings: F09N66, 72 h
[6] = tested on: Plasmodium falciparum; settings: F08B27, 72 h
[7] = tested on: Plasmodium falciparum; settings: F08B61, 72 h
[8] = tested on: Plasmodium falciparum; settings: F09A9, 72 h
[9] = tested on: Plasmodium falciparum; settings: F07-31, 72 h
[10] = tested on: Plasmodium falciparum; settings: F09A10, 72 h
[11] = tested on: Plasmodium falciparum; settings: F09N6, 72 h
[12] = tested on: Plasmodium falciparum; settings: 72 h
Description: Antimicrobial activity against Plasmodium falciparum harboring pfnhe1 ms4760 haplotype 35 carrying 1 copy of DNNND repeat and His/Asp ratio 5:2 infected in human erythrocytes after 72 hrs by SYBR green I-based fluorescence assay

[13] = tested on: Plasmodium falciparum; settings: 72 h; remark: listed apart in the source
Description: Antimicrobial activity against Plasmodium falciparum harboring pfnhe1 ms4760 haplotype 9 carrying 3 copies of DNNND repeat and His/Asp ratio 7:6 infected in human erythrocytes after 72 hrs by SYBR green I-based fluorescence assay

[14] = tested on: Plasmodium falciparum; settings: F08B7, 72 h
[15] = tested on: Plasmodium falciparum; settings: F07-8, 72 h
[16] = tested on: Plasmodium falciparum; settings: F09A61, 72 h
[17] = tested on: Plasmodium falciparum; settings: F07-46, 72 h
[18] = tested on: Plasmodium falciparum; settings: K1, 72 h
[19] = tested on: Plasmodium falciparum; settings: F09N40, 72 h
[20] = tested on: Plasmodium falciparum; settings: F08B41, 72 h
[21] = tested on: Plasmodium falciparum; settings: F09N64, 72 h
[22] = tested on: Plasmodium falciparum; settings: W2, 72 h
[23] = tested on: Plasmodium falciparum; settings: F08B40, 72 h
[24] = tested on: Plasmodium falciparum; settings: F07-28, 72 h
[25] = tested on: Plasmodium falciparum; settings: F09N35, 72 h
[26] = tested on: Plasmodium falciparum; settings: F07-35, 72 h
[27] = tested on: Plasmodium falciparum; settings: F07-42, 72 h
[28] = tested on: Plasmodium falciparum; settings: F07-23, 72 h
[29] = tested on: Plasmodium falciparum; settings: F08B9, 72 h
[30] = tested on: Plasmodium falciparum; settings: F07-3, 72 h
[31] = tested on: Plasmodium falciparum; settings: 72 h; remark: listed apart in the source
Description: Antimicrobial activity against Plasmodium falciparum harboring pfnhe1 ms4760 haplotype 3 carrying 1 copy of DNNND repeat and His/Asp ratio 6:2 infected in human erythrocytes after 72 hrs by SYBR green I-based fluorescence assay

[32] = tested on: Plasmodium falciparum; settings: F09N29, 72 h
[33] = tested on: Plasmodium falciparum; settings: F07-13, 72 h
[34] = tested on: Plasmodium falciparum; settings: F08B53, 72 h
[35] = tested on: Plasmodium falciparum; settings: F07-7, 72 h
[36] = tested on: Plasmodium falciparum; settings: F08B2, 72 h

Compound C=C[C@H]1CN2CC[C@H]1C[C@H]2[C@H](O)c1ccnc2ccc(OC)cc12 [QUININE] has an IC50 [1] of 0.448 µM, an IC50 [2] of 0.243 µM and an IC50 [3] of 1.29 µM. It also gave an IC50 [4] of 0.149 µM, an IC50 [5] of 0.711 µM and an IC50 [6] of 0.87 µM. The IC50 [7] was 1.13 µM, the IC50 [8] was 0.562 µM and the IC50 [9] was 0.433 µM. For the same compound, the IC50 [10] was 0.716 µM, the IC50 [11] was 0.71 µM and the IC50 [12] was 0.26 µM. For the same compound, the IC50 [13] was 0.837 µM, the IC50 [14] was 1.1 µM and the IC50 [15] was 0.874 µM. It also gave an IC50 [16] of 0.373 µM, an IC50 [17] of 0.894 µM and an IC50 [18] of 0.407 µM. It also gave an IC50 [19] of 2.12 µM, an IC50 [20] of 0.886 µM and an IC50 [21] of 0.475 µM. It also gave an IC50 [22] of 0.72 µM, an IC50 [23] of 0.26 µM and an IC50 [24] of 0.473 µM. It also gave an IC50 [25] of 0.905 µM, an IC50 [26] of 0.821 µM and an IC50 [27] of 0.388 µM. It also gave an IC50 [28] of 0.447 µM, an IC50 [29] of 0.218 µM and an IC50 [30] of 0.875 µM. For the same compound, the IC50 [31] was 0.223 µM, the IC50 [32] was 0.853 µM and the IC50 [33] was 0.365 µM. It also gave an IC50 [34] of 0.468 µM, an IC50 [35] of 0.456 µM and an IC50 [36] of 1.02 µM.
